target: T1, GCase (Homo sapiens, UniProt P04062); assay: activation of GCase in a live cell PFB assay in HELA cells; format: cell-based; details: activation of GCase, EC50 ranges
T1 construct: endogenous in cells; host or cells: HeLa cells
T1 sequence (P04062 40-536): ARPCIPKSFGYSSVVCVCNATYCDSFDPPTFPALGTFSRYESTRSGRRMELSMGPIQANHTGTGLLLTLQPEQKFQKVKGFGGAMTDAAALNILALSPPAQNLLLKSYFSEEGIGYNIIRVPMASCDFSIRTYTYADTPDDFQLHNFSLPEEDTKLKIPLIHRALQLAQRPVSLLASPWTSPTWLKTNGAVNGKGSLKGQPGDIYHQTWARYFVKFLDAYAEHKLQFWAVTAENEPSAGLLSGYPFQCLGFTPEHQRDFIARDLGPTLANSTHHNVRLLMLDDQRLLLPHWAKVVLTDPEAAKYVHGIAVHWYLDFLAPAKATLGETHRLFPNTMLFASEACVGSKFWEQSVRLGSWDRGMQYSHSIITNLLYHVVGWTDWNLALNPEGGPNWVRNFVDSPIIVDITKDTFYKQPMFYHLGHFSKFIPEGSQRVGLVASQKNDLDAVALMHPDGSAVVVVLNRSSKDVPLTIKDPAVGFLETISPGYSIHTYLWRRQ
Method: Exemplary compounds were evaluated for activation of GCase in a live cell PFB assay in HELA cells (essentially as described in Ysselstein et al., “LRRK2 kinase activity regulates lysosomal glucocerebrosidase in neurons derived from Parkinson's disease patients” Nature Communications (2019) 10:5570). […] EC50 ranges: A: <10 μM; B: >10-50 μM; C: >50-100 μM; D: >100 μM.

Compared with Cc1nc(N2CC3(CCN(c4nccc(-c5nncs5)n4)C3)C2)cc(C(F)(F)F)n1 [Cmpd 1131], Cc1nc(N2CC3(CCN(c4ncc5cnn(CC(C)(F)F)c5n4)C3)C2)cc(C(F)(F)F)n1 [Cmpd 1135] is lower in EC50: > 100 µM for the first, 10 to 50 µM for the second.

FC(F)Cn1ncc2ncc(N3CC[C@@]4(CCN(c5cnc(C(F)(F)F)nc5)C4)C3)nc21 [Cmpd 1132] and FC(F)Cn1ncc2ncc(N3CC[C@]4(CCN(c5cnc(C(F)(F)F)nc5)C4)C3)nc21 [Cmpd 1133] fall in the same range of EC50: 10 to 50 µM for the first, 10 to 50 µM for the second.

First: Cc1cc(N2CC3(CCN(c4cnc5cnn(CC(C)(F)F)c5n4)C3)C2)nc(C(F)(F)F)n1 [Cmpd 1134]
Second: Cc1cc(N2CC3(CCN(c4cnc5cnn([C@H]6CCOC6)c5n4)C3)C2)nc(C(F)(F)F)n1 [Cmpd 1146]
The EC50 of the first is higher: > 100 µM for the first, 10 to 50 µM for the second. The second is the more potent here.

CCn1nc(C(F)(F)F)c2ncc(N3CCC4(CN(c5cc(C(F)(F)F)nc(C)n5)C4)C3)nc21 [Cmpd 1136] and Cc1nc(N2CC3(CCN(c4cnc5cnn([C@@H]6CCOC6)c5n4)C3)C2)cc(C(F)(F)F)n1 [Cmpd 1144] cannot be ordered by EC50: < 10 µM for the first, < 10 µM for the second.

Compared with Cc1nc(N2CC3(CCN(c4cnc5cnn(CC(F)F)c5n4)C3)C2)c(F)c(C(F)(F)F)n1 [Cmpd 1137], Cc1nc(C(F)(F)F)nc(N2CC3(CCN(c4cnc5cnn(CC(F)F)c5n4)C3)C2)c1F [Cmpd 1138] is lower in EC50: 50 to 100 µM for the first, 10 to 50 µM for the second.

Cc1nc(C(F)F)cc(N2CC3(CCN(c4cnc5cnn(CC(F)F)c5n4)C3)C2)n1 [Cmpd 1139] and Cc1cc(N2CC3(CCN(c4cnc5cnn(CC(F)F)c5n4)C3)C2)nc(C(F)F)n1 [Cmpd 1140] cannot be ordered by EC50: < 10 µM for the first, < 10 µM for the second.

Cn1c(=O)n(C2COC2)c2nc(N3CCC4(CN(c5ccnc(C(F)(F)F)c5)C4)C3)ncc21 [Cmpd 1141] and Cn1c(=O)n(CC(F)F)c2nc(N3CCC4(CN(c5ccnc(C(F)(F)F)c5)C4)C3)ncc21 [Cmpd 1142] cannot be ordered by EC50: < 10 µM for the first, < 10 µM for the second.

Cc1cc(N2CC3(CCN(c4cnc5c(C)nn(C6COC6)c5n4)C3)C2)nc(C(F)(F)F)n1 [Cmpd 1143] and Cc1cc(N2CC3(CCN(c4cnc5cnn([C@@H]6CCOC6)c5n4)C3)C2)nc(C(F)(F)F)n1 [Cmpd 1147] cannot be ordered by EC50: < 10 µM for the first, < 10 µM for the second.

First: Cc1nc(N2CC3(CCN(c4cnc5cnn([C@H]6CCOC6)c5n4)C3)C2)cc(C(F)(F)F)n1 [Cmpd 1145]
Second: FC(F)Cn1ncc2ncc(N3CC4(CCCN(c5ccnc(C(F)(F)F)c5)C4)C3)nc21 [Compound 8, 2-[1-(2,2-difluoroethyl)-1H-pyrazolo[3,4-b]pyrazin-6-yl]-6-[2-(trifluoromethyl)pyridin-4-yl]-2,6-diazaspiro[3.5]nonane]
The EC50 of the first is higher: 10 to 50 µM for the first, < 10 µM for the second. The second is the more potent here.

FC(F)Cn1ncc2ncc(N3CCC4(CC3)CN(c3cc(C(F)(F)F)ccn3)C4)nc21 [Compound 1, 7-[1-(2,2-difluoroethyl)-1H-pyrazolo[3,4-b]pyrazin-6-yl]-2-[4-(trifluoromethyl)pyridin-2-yl]-2,7-diazaspiro[3.5]nonane] and FC(F)Cn1ncc2ncc(N3CC4(CCN(c5cc(C(F)(F)F)ccn5)CC4)C3)nc21 [Compound 3, 2-[1-(2,2-difluoroethyl)-1H-pyrazolo[3,4-b]pyrazin-6-yl]-7-[4-(trifluoromethyl)pyridin-2-yl]-2,7-diazaspiro[3.5]nonane] cannot be ordered by EC50: < 10 µM for the first, < 10 µM for the second.

FC(F)(F)c1ccncc1OC1CC2(CCCN(c3cncc(-c4nncs4)n3)C2)C1 (stereo not drawn) [Compound 2, 6-[6-(1,3,4-thiadiazol-2-yl)pyrazin-2-yl]-2-{[4-(trifluoromethyl)pyridin-3-yl]oxy}-6-azaspiro[3.5]nonane] and FC(F)(F)Cn1ncc2ncc(N3CCCC4(CC(Oc5cnccc5C(F)(F)F)C4)C3)nc21 (stereo not drawn) [Compound 11, 6-[1-(2,2,2-trifluoroethyl)-1H-pyrazolo[3,4-b]pyrazin-6-yl]-2-{[4-(trifluoromethyl)pyridin-3-yl]oxy}-6-azaspiro[3.5]nonane] cannot be ordered by EC50: < 10 µM for the first, < 10 µM for the second.

FC(F)Cn1ncc2ncc(N3CCCC4(CC(Oc5cccnc5C(F)(F)F)C4)C3)nc21 (stereo not drawn) [Compound 4, 6-[1-(2,2-Difluoroethyl)-1H-pyrazolo[3,4-b]pyrazin-6-yl]-2-{[2-(trifluoromethyl)pyridin-3-yl]oxy}-6-azaspiro[3.5]nonane] and FC(F)Cn1ncc2ncc(N3CCCC4(CC(Oc5cnccc5C(F)(F)F)C4)C3)nc21 (stereo not drawn) [Compound 10, 6-[1-(2,2-difluoroethyl)-1H-pyrazolo[3,4-b]pyrazin-6-yl]-2-{[4-(trifluoromethyl)pyridin-3-yl]oxy}-6-azaspiro[3.5]nonane] cannot be ordered by EC50: < 10 µM for the first, < 10 µM for the second.

FC(F)Cn1ncc2ncc(N3CCCC4(CCN(c5cccnc5C(F)(F)F)C4)C3)nc21 (stereo not drawn) [Compound 5, 7-[1-(2,2-difluoroethyl)-1H-pyrazolo[3,4-b]pyrazin-6-yl]-2-[2-(trifluoromethyl)pyridin-3-yl]-2,7-diazaspiro[4.5]decane] and FC(F)Cn1ncc2ncc(N3CCC4(CCCN(c5cccnc5C(F)(F)F)C4)C3)nc21 (stereo not drawn) [Compound 7, 2-[1-(2,2-difluoroethyl)-1H-pyrazolo[3,4-b]pyrazin-6-yl]-7-[2-(trifluoromethyl)pyridin-3-yl]-2,7-diazaspiro[4.5]decane] cannot be ordered by EC50: < 10 µM for the first, < 10 µM for the second.

First: FC(F)Cn1ncc2ncc(N3CCC4(CCN(c5cc(C(F)(F)F)ccn5)C4)CC3)nc21 [Compound 6, 8-[1-(2,2-difluoroethyl)-1H-pyrazolo[3,4-b]pyrazin-6-yl]-2-[4-(trifluoromethyl)pyridin-2-yl]-2,8-diazaspiro[4.5]decane]
Second: FC(F)Cn1ncc2ncc(N3CCC4(CCN(c5cc(C(F)(F)F)ccn5)CC4)C3)nc21 [Compound 16, 2-[1-(2,2-difluoroethyl)-1H-pyrazolo[3,4-b]pyrazin-6-yl]-8-[4-(trifluoromethyl)pyridin-2-yl]-2,8-diazaspiro[4.5]decane]
The EC50 of the first is lower: < 10 µM for the first, 10 to 50 µM for the second. The first is the more potent here.

Compared with FC(F)Cn1ncc2ncc(N3CC4(CCCN(c5cccnc5C(F)(F)F)C4)C3)nc21 [Compound 9, 2-[1-(2,2-difluoroethyl)-1H-pyrazolo[3,4-b]pyrazin-6-yl]-6-[2-(trifluoromethyl)pyridin-3-yl]-2,6-diazaspiro[3.5]nonane], FC(F)Cn1ncc2ncc(N3CCCC4(C3)CN(c3ncccc3C(F)(F)F)C4)nc21 [Compound 18, 6-[1-(2,2-difluoroethyl)-1H-pyrazolo[3,4-b]pyrazin-6-yl]-2-[3-(trifluoromethyl)pyridine-2-yl]-2,6-diazaspiro[3.5]nonane] is higher in EC50: < 10 µM for the first, 10 to 50 µM for the second.

FC(F)Cn1ncc2ncc(N3CCCC4(CN(c5ccnc(C(F)(F)F)c5)C4)C3)nc21 [Compound 12, 6-[1-(2,2-difluoroethyl)-1H-pyrazolo[3,4-b]pyrazin-6-yl]-2-[2-(trifluoromethyl)pyridin-4-yl]-2,6-diazaspiro[3.5]nonane] and FC(F)Cn1ncc2ncc(N3CC4(CCCN(c5cc(C(F)(F)F)ccn5)C4)C3)nc21 [Compound 21, 2-[1-(2,2-difluoroethyl)-1H-pyrazolo[3,4-b]pyrazin-6-yl]-6-[4-(trifluoromethyl)pyridin-2-yl]-2,6-diazaspiro[3.5]nonane] fall in the same range of EC50: 10 to 50 µM for the first, 10 to 50 µM for the second.

FC(F)Cn1ncc2ncc(N3CCCC4(CC(Oc5ccnc(C(F)(F)F)c5)C4)C3)nc21 (stereo not drawn) [Compound 13, 6-[1-(2,2-difluoroethyl)-1H-pyrazolo[3,4-b]pyrazin-6-yl]-2-{[2-(trifluoromethyl)pyridin-4-yl]oxy}-6-azaspiro[3.5]nonane] and FC(F)Cn1ncc2ncc(N3CCCC4(CC(Oc5ccc(C(F)(F)F)nc5)C4)C3)nc21 (stereo not drawn) [Compound 22, 6-[1-(2,2-difluoroethyl)-1H-pyrazolo[3,4-b]pyrazin-6-yl]-2-{[6-(trifluoromethyl)pyridin-3-yl]oxy}-6-azaspiro[3.5]nonane] fall in the same range of EC50: 10 to 50 µM for the first, 10 to 50 µM for the second.

FC(F)Cn1ncc2ncc(N3CC4(CCCN(c5ccc(C(F)(F)F)cn5)C4)C3)nc21 [Compound 14, 2-[1-(2,2-difluoroethyl)-1H-pyrazolo[3,4-b]pyrazin-6-yl]-6-[5-(trifluoromethyl)pyridin-2-yl]-2,6-diazaspiro[3.5]nonane] and FC(F)Cn1ncc2ncc(N3CC4(CCCN(c5ccc(C(F)(F)F)nc5)C4)C3)nc21 [Compound 20, 2-[1-(2,2-difluoroethyl)-1H-pyrazolo[3,4-b]pyrazin-6-yl]-6-[6-(trifluoromethyl)pyridin-3-yl]-2,6-diazaspiro[3.5]nonane] fall in the same range of EC50: 10 to 50 µM for the first, 10 to 50 µM for the second.

FC(F)Cn1ncc2ncc(N3CCCC4(CN(c5cncc(C(F)(F)F)c5)C4)C3)nc21 [Compound 15, 6-[1-(2,2-difluoroethyl)-1H-pyrazolo[3,4-b]pyrazin-6-yl]-2-[5-(trifluoromethyl)pyridin-3-yl]-2,6-diazaspiro[3.5]nonane] and FC(F)Cn1ncc2ncc(N3CCCC4(C3)CN(c3cnccc3C(F)(F)F)C4)nc21 [Compound 17, 6-[1-(2,2-difluoroethyl)-1H-pyrazolo[3,4-b]pyrazin-6-yl]-2-[4-(trifluoromethyl)pyridin-3-yl]-2,6-diazaspiro[3.5]nonane] fall in the same range of EC50: 10 to 50 µM for the first, 10 to 50 µM for the second.

FC(F)Cn1ncc2ncc(N3CCCC4(CN(c5ccccc5)C4)C3)nc21 [Compound 19, 6-[1-(2,2-difluoroethyl)-1H-pyrazolo[3,4-b]pyrazin-6-yl]-2-phenyl-2,6-diazaspiro[3.5]nonane] was tested, and the EC50 was 10 to 50 µM.
